Data from ChEMBL document CHEMBL1201862, “PubChem BioAssay data set” (2004).
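Tested at 5 concentrations; 48 h exposure; 96-well plates; endpoints linearly interpolated, else capped at highest concentration. The concentration for 50% growth inhibition is given as GI50.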 Activity calls are given as the source filed them. No stated cut-off is given here; in the data, active = GI50 up to about 1.1 µM and inactive = higher.

Legend:
Experiment in all cases: inhibition of tumour cell growth, NCI panel, 48 h
[1] = test system: KM-20L2
[2] = test system: SF-295
[3] = test system: DMS-114
[4] = test system: SK-OV-3
[5] = test system: HCT-116
[6] = test system: TK-10
[7] = test system: NCI-H460
[8] = test system: NCI-H522
[9] = test system: EKVX
[10] = test system: UO-31
[11] = test system: LOX IMVI
[12] = test system: OVCAR-4
[13] = test system: NCI-H23
[14] = test system: OVCAR-8
[15] = test system: KM12
[16] = test system: SK-MEL-2
[17] = test system: LXFL 529
[18] = test system: IGROV-1
[19] = test system: CCRF-CEM
[20] = test system: DMS-273
[21] = test system: SR
[22] = test system: A549
[23] = test system: COLO 205
[24] = test system: NCI-H226
[25] = test system: HCT-15
[26] = test system: CAKI-1
[27] = test system: SW-620
[28] = test system: SF-268
[29] = test system: SK-MEL-28
[30] = test system: HOP-62
[31] = test system: U-251
[32] = test system: OVCAR-3
[33] = test system: UACC-257
[34] = test system: K562
[35] = test system: SNB-19
[36] = test system: SK-MEL-5
[37] = test system: A498
[38] = test system: SF-539
[39] = test system: RPMI-8226
[40] = test system: SN12C
[41] = test system: MOLT-4
[42] = test system: M19-MEL
[43] = test system: HT-29
[44] = test system: HL-60
[45] = test system: SNB-75
[46] = test system: HCC 2998
[47] = test system: RXF 393
[48] = test system: 786-0
[49] = test system: ACHN
[50] = test system: SNB-78
[51] = test system: HOP-92
[52] = test system: UACC-62
[53] = test system: DLD-1
[54] = test system: XF498
[55] = test system: OVCAR-5
[56] = test system: M14
[57] = test system: Malme-3M

Q: Which GI50 [1] does the source give for CC1(SCC(N)C(=O)O)CC(=O)NC1=O (stereo unspecified) here?
A: > 100 µM (inactive)

Q: And the GI50 [2]?
A: > 100 µM (inactive)

Q: What about the GI50 [3] of the same compound?
A: > 100 µM (inactive)

Q: And the GI50 [4]?
A: > 100 µM (inactive)

Q: And the GI50 [5]?
A: > 100 µM (inactive)

Q: What about the GI50 [6] of the same compound?
A: > 100 µM (inactive)

Q: What about the GI50 [7] of the same compound?
A: > 100 µM (inactive)

Q: What about the GI50 [8] of the same compound?
A: > 100 µM (inactive)

Q: And the GI50 [9]?
A: > 100 µM (inactive)

Q: What about the GI50 [10] of the same compound?
A: > 100 µM (inactive)

Q: What about the GI50 [11] of the same compound?
A: > 100 µM (inactive)

Q: And the GI50 [12]?
A: > 100 µM (inactive)

Q: And the GI50 [13]?
A: > 100 µM (inactive)

Q: And the GI50 [14]?
A: > 100 µM (inactive)

Q: And the GI50 [15]?
A: > 100 µM (inactive)

Q: And the GI50 [16]?
A: > 100 µM (inactive)

Q: What about the GI50 [17] of the same compound?
A: > 100 µM (inactive)

Q: And the GI50 [18]?
A: > 100 µM (inactive)

Q: What about the GI50 [19] of the same compound?
A: > 100 µM (inactive)

Q: What about the GI50 [20] of the same compound?
A: > 100 µM (inactive)

Q: What about the GI50 [21] of the same compound?
A: > 100 µM (inactive)

Q: And the GI50 [22]?
A: > 100 µM (inactive)

Q: And the GI50 [23]?
A: > 100 µM (inactive)

Q: What about the GI50 [24] of the same compound?
A: > 100 µM (inactive)

Q: What about the GI50 [25] of the same compound?
A: > 100 µM

Q: And the GI50 [26]?
A: > 100 µM (inactive)

Q: What about the GI50 [27] of the same compound?
A: > 100 µM (inactive)

Q: And the GI50 [28]?
A: > 100 µM (inactive)

Q: What about the GI50 [29] of the same compound?
A: > 100 µM (inactive)

Q: What about the GI50 [30] of the same compound?
A: > 100 µM (inactive)

Q: And the GI50 [31]?
A: > 100 µM (inactive)

Q: What about the GI50 [32] of the same compound?
A: > 100 µM (inactive)

Q: What about the GI50 [33] of the same compound?
A: > 100 µM (inactive)

Q: What about the GI50 [34] of the same compound?
A: > 100 µM (inactive)

Q: What about the GI50 [35] of the same compound?
A: > 100 µM (inactive)

Q: What about the GI50 [36] of the same compound?
A: > 100 µM (inactive)

Q: What about the GI50 [37] of the same compound?
A: 0.42 µM (active)

Q: And the GI50 [38]?
A: > 100 µM (inactive)

Q: And the GI50 [39]?
A: > 100 µM (inactive)

Q: And the GI50 [40]?
A: > 100 µM (inactive)

Q: And the GI50 [41]?
A: > 100 µM (inactive)

Q: What about the GI50 [42] of the same compound?
A: > 100 µM (inactive)

Q: And the GI50 [43]?
A: > 100 µM (inactive)

Q: What about the GI50 [44] of the same compound?
A: > 100 µM (inactive)

Q: And the GI50 [45]?
A: > 100 µM (inactive)

Q: What about the GI50 [46] of the same compound?
A: > 100 µM (inactive)

Q: And the GI50 [47]?
A: > 100 µM (inactive)

Q: And the GI50 [48]?
A: > 100 µM (inactive)

Q: What about the GI50 [49] of the same compound?
A: 62.4 µM (inactive)

Q: And the GI50 [50]?
A: > 100 µM (inactive)

Q: What about the GI50 [51] of the same compound?
A: > 100 µM (inactive)

Q: And the GI50 [52]?
A: > 100 µM (inactive)

Q: What does the source list for Cc1ccccc1SC(/C=C/NNC1=NN=C(c2ccccc2)C(c2ccccc2)N1)c1ccccc1 (stereo unspecified)?
A: GI50 [1]: 52 µM (inactive); GI50 [2]: 18.8 µM (inactive); GI50 [3]: 22.9 µM (inactive); GI50 [4]: 22.4 µM (inactive); GI50 [53]: 37.5 µM (inactive); GI50 [6]: 17.8 µM (inactive); GI50 [7]: 34.9 µM (inactive); GI50 [8]: 33.8 µM (inactive); GI50 [9]: 27.2 µM (inactive); GI50 [10]: 16.9 µM (inactive); GI50 [11]: 33.8 µM (inactive); GI50 [12]: 2.99 µM (inactive); GI50 [13]: 17.5 µM (inactive); GI50 [14]: 13.7 µM (inactive); GI50 [15]: 28.4 µM (inactive); GI50 [16]: 16.3 µM (inactive); GI50 [18]: 27.4 µM (inactive); GI50 [54]: 34.7 µM (inactive); GI50 [19]: 27.3 µM (inactive); GI50 [20]: 35.7 µM (inactive); GI50 [22]: 14.3 µM (inactive); GI50 [23]: 36.4 µM (inactive); GI50 [24]: 18.3 µM (inactive); GI50 [25]: 34 µM; GI50 [26]: 13.7 µM (inactive); GI50 [27]: 27.7 µM (inactive); GI50 [28]: 24.9 µM (inactive); GI50 [29]: 15.7 µM (inactive); GI50 [30]: 17.7 µM (inactive); GI50 [31]: 24.9 µM (inactive); GI50 [32]: 13.7 µM (inactive); GI50 [33]: 18.6 µM (inactive); GI50 [34]: 30.2 µM (inactive); GI50 [55]: > 100 µM (inactive); GI50 [35]: 50 µM (inactive); GI50 [36]: 26.1 µM (inactive); GI50 [56]: 19.1 µM (inactive); GI50 [37]: 23.7 µM (inactive); GI50 [38]: 13.4 µM (inactive); GI50 [39]: 27.5 µM (inactive); GI50 [40]: 61.2 µM (inactive); GI50 [41]: 41.7 µM (inactive); GI50 [42]: 26 µM (inactive); GI50 [43]: 29.8 µM (inactive); GI50 [44]: > 10 µM (inactive); GI50 [45]: 5.68 µM (inactive); GI50 [46]: 40.6 µM (inactive); GI50 [47]: 11.1 µM (inactive); GI50 [48]: 11.9 µM (inactive); GI50 [49]: 15.4 µM (inactive); GI50 [50]: 22 µM (inactive); GI50 [51]: 9.57 µM (inactive); GI50 [52]: 29.4 µM (inactive); GI50 [57]: 22.4 µM (inactive)
